Measurements taken from patent US12122785B2, “Substituted pyridines, pyridazines, pyrimidines, and 1,2,4-triazines as TYK2 inhibitors” (Sudo Biosciences Limited, priority 2021, dated 2024).

What was measured:
[1] = test system: TYK2 pseudokinase (JH2); IFNα-stimulated HEK-Blue IFNα/β cells; assay: HEK-Blue IFNα/β reporter assay (STAT1-inducible SEAP) for profiling TYK2 pseudokinase (JH2) inhibition; format: cell-based; conditions: 1 ng/mL human recombinant IFNα, SEAP readout, read-out: IFNα (TYK2 inhibitory activity, IC50)
Description: (§1) Example B-1: HEK-Blue™ IL-23 and IFNα/β Reporter Assays for Profiling TYK2 Pseudokinase (JH2) Inhibition
(§2) HEK-Blue™ IL-23 and IFNα/β cells with a stably-integrated cytokine receptor and STAT3 or STAT1 express STAT-inducible secreted embryonic alkaline phosphatase (SEAP) reporter gene upon cytokine stimulation. These cells are plated in DMEM (Gibco) containing 10% heat-inactivated FBS (Gibco) and 100 U/mL PenStrep (Gibco) at 37° C. under 5% CO2 conditions for 20-22 hours. The cells are then pretreated with serially diluted test compounds for 60 min prior to stimulation with either 10 ng/mL human recombinant IL-23 (Miltenyl Biotech) or 1 ng/mL human recombinant IFNα (InvivoGen) for 22-24 hours for IL-23 or 16-18 h for IFNα. SEAP induction is measured using the QUANTI Blue™ Solution (InvivoGen) according to the manufacturer's instructions.

[2] = test system: IL-2-stimulated HEK-Blue IL-2 reporter cells; assay: HEK-Blue IL-2 reporter assay (STAT5-inducible SEAP) for determining selectivity; format: cell-based; conditions: 4 ng/mL human recombinant IL-2, 24 hours
Description: (§3) Example B-3: HEK-Blue™ IL-2 and IFNγ Reporter Assays for Determining Selectivity
(§4) HEK-Blue™ IL-2 and IFNγ reporter cells with a stably-integrated cytokine receptor and STAT5 or STAT1 express STAT-inducible secreted embryonic alkaline phosphatase (SEAP) reporter gene upon cytokine stimulation. These cells were plated in DMEM (Gibco) containing 10% heat-inactivated FBS (Gibco) and 100 U/mL PenStrep (Gibco) at 37° C. under 5% CO2 conditions for 20-22 hours. The cells were then pretreated with serially diluted test compounds for 60 min prior to stimulation with either 4 ng/mL human recombinant IL-2 (Miltenyl Biotech) or 50 ng/mL human recombinant IFNγ (InvivoGen) for 24 hours. SEAP induction was measured using the QUANTI-Blue™ Solution (InvivoGen) according to the manufacturer's instructions.

JAK1 kinase domain (JH1) = target: T1, JAK1 kinase domain (JH1) (Homo sapiens, UniProt P23458); assay: HTRF-based selectivity assay, JAK1 catalytic domain; format: biochemical; conditions: 21.43 μM ATP, read-out: JAK-JHI (IC50)
T1 construct: recombinant purified His or GST-tagged catalytic domain for each enzyme; made in house
Description: (§5) Example B-2: HTRF-Based Selectivity Assay
(§6) The ability of compounds to inhibit the activity of JAK1, JAK2, JAK3 and TYK2 is measured using a recombinant purified His or GST-tagged catalytic domain for each enzyme (JAK1, JAK2 and TYK2 are generated in-house; JAK3 was purchased from Carna biosciences, Cat #08-046) in an HTRF format biochemical assay. The reactions employs a commercial peptide substrate from Cisbio (Cat #62TK0PEC). The basic assay protocol is as follows: first, 2.5 μL of diluted compounds (4×) in DMSO are dispensed into a 384-well Optiplate. Next, 2.5 μL of enzyme (final concentrations for enzymes are: TYK2—700 ng/mL, JAK1—80.6 ng/mL, JAK2—2.1 ng/mL and JAK3—171.8 ng/mL) is added and incubated at RT for 5-20 min. Finally, 5 μl of mixture of 2×ATP [Final concentration 20 μM for TYK2, 21.43 μM for JAK1, 14.7 μM for JAK2 and 2.12 μM for JAK3]+2× Substrate [Final concentration 217 nM for TYK2, 454.7 nM for JAK1, 200 nM for JAK2 and 257.4 nM for JAK3] is added to 384 well Optiplate. Composition of Kinase assay buffer used in the assay is as follows: HEPES 50 mM, EGTA 1 mM, MgCl2 10 mM, DTT 2 mM, Tween-20 0.01% and water. Then the plates are shaken and then incubated at 26.5° C. for 60 min.

TYK2 kinase domain (JH1) = target: T2, TYK2 kinase domain (JH1) (Homo sapiens, UniProt P29597); assay: HTRF-based selectivity assay, TYK2 catalytic domain; format: biochemical; conditions: 20 μM ATP
T2 construct: recombinant purified His or GST-tagged catalytic domain for each enzyme; made in house
T2 sequence (P29597 897-1176 limits assumed): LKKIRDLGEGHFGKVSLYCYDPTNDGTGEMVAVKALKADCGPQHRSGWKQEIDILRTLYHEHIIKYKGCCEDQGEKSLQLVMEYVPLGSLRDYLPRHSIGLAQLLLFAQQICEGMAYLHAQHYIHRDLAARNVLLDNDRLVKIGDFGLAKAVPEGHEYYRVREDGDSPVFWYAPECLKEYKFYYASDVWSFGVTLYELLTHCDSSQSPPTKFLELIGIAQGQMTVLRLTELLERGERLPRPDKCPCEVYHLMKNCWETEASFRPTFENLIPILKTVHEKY
Description: as §5, §6

JAK2 kinase domain (JH1) = target: T3, JAK2 kinase domain (JH1) (Homo sapiens, UniProt O60674); assay: HTRF-based selectivity assay, JAK2 catalytic domain; format: biochemical; conditions: 14.7 μM ATP
T3 construct: recombinant purified His or GST-tagged catalytic domain for each enzyme; made in house
Description: as §5, §6

[3] = test system: TYK2 pseudokinase (JH2); IL-23-stimulated HEK-Blue IL-23 cells; assay: HEK-Blue IL-23 reporter assay (STAT3-inducible SEAP) for profiling TYK2 pseudokinase (JH2) inhibition; format: cell-based; conditions: 10 ng/mL human recombinant IL-23, SEAP readout, read-out: IL23 (TYK2 inhibitory activity, IC50)
Description: as §1, §2

[4] = test system: IFNγ-stimulated HEK-Blue IFNγ reporter cells; assay: HEK-Blue IFNγ reporter assay (STAT1-inducible SEAP) for determining selectivity; format: cell-based; conditions: 50 ng/mL human recombinant IFNγ, 24 hours, read-out: IFN-γ SEAP selectivity assay IC50
Description: as §3, §4

T1 sequence (P23458 875-1153 limits assumed): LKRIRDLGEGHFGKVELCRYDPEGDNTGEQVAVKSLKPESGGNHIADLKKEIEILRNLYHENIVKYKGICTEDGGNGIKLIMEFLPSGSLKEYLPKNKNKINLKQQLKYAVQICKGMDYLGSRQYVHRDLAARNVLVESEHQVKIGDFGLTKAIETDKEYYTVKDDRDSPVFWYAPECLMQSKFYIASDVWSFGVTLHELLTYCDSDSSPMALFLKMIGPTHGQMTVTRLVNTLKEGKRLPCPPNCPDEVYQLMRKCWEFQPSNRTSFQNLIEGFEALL
T3 sequence (O60674 849-1124 limits assumed): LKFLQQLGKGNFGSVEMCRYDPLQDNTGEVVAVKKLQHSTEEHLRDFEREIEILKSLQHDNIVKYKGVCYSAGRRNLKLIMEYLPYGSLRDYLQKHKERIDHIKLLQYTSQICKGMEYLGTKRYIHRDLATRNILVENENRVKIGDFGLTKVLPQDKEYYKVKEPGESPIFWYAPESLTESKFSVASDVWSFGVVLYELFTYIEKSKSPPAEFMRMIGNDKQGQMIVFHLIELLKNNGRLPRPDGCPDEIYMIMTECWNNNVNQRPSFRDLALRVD

IC50 (JAK1 kinase domain (JH1)) [nM]	IC50 (TYK2 kinase domain (JH1)) [nM]	IC50 (JAK2 kinase domain (JH1)) [nM]	Compound	IC50 [1] [nM]	IC50 [2] [nM]	IC50 [3] [nM]	IC50 [4] [nM]
> 1000	> 1000	> 1000	[2H]C([2H])([2H])NC(=O)c1cnc(NC(=O)C2CC2)cc1Nc1nccc2c1N(C)Cc1cn(C)nc1-2 [Compound 64, 6-(cyclopropanecarboxamido)-4-((2,5-dimethyl-4,5-dihydro-2H-pyrazolo[4,3-c][1,7]naphthyridin-6-yl)amino)-N-(methyl-d3)nicotinamide]	< 30	> 1000	< 30	300 to 1000
			[2H]C([2H])([2H])NC(=O)c1nnc(NC(=O)C2CC2)cc1Nc1cccc2c1N(C)Cc1cc(C)nn1-2 [Compound 52, 6-(cyclopropanecarboxamido)-4-((2,5-dimethyl-4,5-dihydropyrazolo[1,5-a]quinoxalin-6-yl)amino)-N-(methyl-d3)pyridazine-3-carboxamide]	< 30	> 1000	< 30	300 to 1000
			CNC(=O)c1nnc(Nc2cc(C)nc(C)n2)cc1Nc1cccc2c1N(C)Cc1cn(C)nc1-2 [Compound 34, 4-((2,5-dimethyl-4,5-dihydro-2H-pyrazolo[4,3-c]quinolin-6-yl)amino)-6-((2,6-dimethylpyrimidin-4-yl)amino)-N-methylpyridazine-3-carboxamide]	< 30	30 to 300	< 30	30 to 300
			[2H]C([2H])([2H])NC(=O)c1cnc(NC(=O)C2CC2)cc1Nc1cccc2c1N(C)C([2H])([2H])c1ccnn1-2 [Compound 59, 6-(cyclopropanecarboxamido)-N-(methyl-d3)-4-((5-methyl-4,5-dihydropyrazolo[1,5-a]quinoxalin-6-yl-4,4-d2)amino)nicotinamide]	< 30	> 1000	< 30	30 to 300
			CNC(=O)c1nnc(Nc2ccc(F)cn2)cc1Nc1cccc2c1OCc1cn(C3COC3)nc1-2 [Compound 3, 6-[(5-fluoropyridin-2-yl)amino]-N-methyl-4-{[2-(oxetan-3-yl)-2H,4H-chromeno[4,3-c]pyrazol-6-yl]amino}pyridazine-3-carboxamide]	> 1000	300 to 1000	30 to 300	300 to 1000
			[2H]C([2H])([2H])NC(=O)c1nnc(NC(=O)NC)cc1Nc1nccc2c1N(C)Cc1cc(C)nn1-2 [Compound 79, 4-((2,5-dimethyl-4,5-dihydropyrazolo[1,5-a]pyrido[3,4-e]pyrazin-6-yl)amino)-N-(methyl-d3)-6-(3-methylureido)pyridazine-3-carboxamide]	30 to 300	> 1000	< 30	> 1000
			[2H]C([2H])([2H])NC(=O)c1cnc(NC(=O)C2CC2)cc1Nc1nccc2c1N(C)C([2H])([2H])c1cn(C)nc1-2 [Compound 77, 6-(cyclopropanecarboxamido)-4-((2,5-dimethyl-4,5-dihydro-2H-pyrazolo[4,3-c][1,7]naphthyridin-6-yl-4,4-d2)amino)-N-(methyl-d3)nicotinamide]	< 30	> 1000	< 30	300 to 1000
			[2H]C([2H])([2H])NC(=O)c1nnc(NC(=O)NC)cc1Nc1cccc2c1N(C)C([2H])([2H])c1cn(C)nc1-2 [Compound 33, 4-((2,5-dimethyl-4,5-dihydro-2H-pyrazolo[4,3-c]quinolin-6-yl-4,4-d2)amino)-N-(methyl-d3)-6-(3-methylureido)pyridazine-3-carboxamide]	< 30	> 1000	< 30	300 to 1000
			[2H]C([2H])([2H])NC(=O)c1nnc(NC(=O)NC)cc1Nc1nccc2c1N(C)C([2H])([2H])c1cn(C)nc1-2 [Compound 74, 4-((2,5-dimethyl-4,5-dihydro-2H-pyrazolo[4,3-c][1,7]naphthyridin-6-yl-4,4-d2)amino)-N-(methyl-d3)-6-(3-methylureido)pyridazine-3-carboxamide]	< 30	> 1000	< 30	30 to 300
> 1000	> 1000	> 1000	[2H]C([2H])([2H])NC(=O)c1nnc(NC(=O)C2CC2)cc1Nc1nccc2c1N(C([2H])([2H])[2H])Cc1cn(C)nc1-2 [Compound 67, 6-(cyclopropanecarboxamido)-N-(methyl-d3)-4-((2-methyl-5-(methyl-d3)-4,5-dihydro-2H-pyrazolo[4,3-c][1,7]naphthyridin-6-yl)amino)pyridazine-3-carboxamide]	< 30		< 30	
			[2H]C([2H])([2H])NC(=O)c1nnc(NC(=O)N(C)C)cc1Nc1nccc2c1N(C)C([2H])([2H])c1cn(C)nc1-2 [Compound 75, 4-((2,5-dimethyl-4,5-dihydro-2H-pyrazolo[4,3-c][1,7]naphthyridin-6-yl-4,4-d2)amino)-6-(3,3-dimethylureido)-N-(methyl-d3)pyridazine-3-carboxamide]	30 to 300	> 1000	< 30	> 1000
			[2H]C([2H])([2H])NC(=O)c1nnc(NC(=O)C2CC2)cc1Nc1nccc2c1N(C)C([2H])([2H])c1cc(C)nn1-2 [Compound 73, 6-(cyclopropanecarboxamido)-4-((2,5-dimethyl-4,5-dihydropyrazolo[1,5-a]pyrido[3,4-e]pyrazin-6-yl-4,4-d2)amino)-N-(methyl-d3)pyridazine-3-carboxamide]	< 30	> 1000	< 30	30 to 300
			[2H]C([2H])([2H])NC(=O)c1cnc(N2CCN(C(C)C)C2=O)cc1Nc1cccc2c1N(C)C([2H])([2H])c1cn(C)nc1-2 [Compound 63, 4-((2,5-dimethyl-4,5-dihydro-2H-pyrazolo[4,3-c]quinolin-6-yl-4,4-d2)amino)-6-(3-isopropyl-2-oxoimidazolidin-1-yl)-N-(methyl-d3)nicotinamide]	30 to 300	> 1000	< 30	> 1000
			CNC(=O)c1nnc(NC(=O)C2CC2)cc1Nc1cccc2c1OCc1cn(C3COC3)nc1-2 [Compound 4, 6-(cyclopropanecarboxamido)-N-methyl-4-((2-(oxetan-3-yl)-2,4-dihydrochromeno[4,3-c]pyrazol-6-yl)amino)pyridazine-3-carboxamide]	> 1000	300 to 1000	30 to 300	> 1000
			[2H]C([2H])([2H])NC(=O)c1cnc(NC(=O)C2CC2)cc1Nc1nccc2c1N(C)Cc1cc(C)nn1-2 [Compound 71, 6-(cyclopropanecarboxamido)-4-((2,5-dimethyl-4,5-dihydropyrazolo[1,5-a]pyrido[3,4-e]pyrazin-6-yl)amino)-N-(methyl-d3)nicotinamide]	< 30	> 1000	< 30	> 1000
